Measurements: patent US8426447B2, “Spiro-tricyclic ring compounds as beta-secretase modulators and methods of use” (Amgen Inc., priority 2008, dated 2013)
One block for each compound: values may come before it.

Tests used:
BACE1 [1] = target: T1, BACE1 (Homo sapiens, UniProt P56817); assay: In Vitro Enzymatic BACE FRET (Fluorescence Resonance Energy Transfer) Assay; assay type: biochemical; settings: read-out: BACE1 FRET assay
Summary of the method: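 Buffer 0.05 M acetate pH 4.2 with 10% DMSO final and 100 uM genapol; reaction started with 50 nM FRET peptide substrate (fluorophore/quencher flanking BACE cleavage site), incubated one hour. Stopped with Tris buffer raising pH to neutrality, then fluorescence read.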

BACE1 [2] = target: T1, BACE1; assay: In Vitro BACE Cell-based Assay (HEK cell assay): Aβ40 in conditioned medium of cells stably expressing Amyloid Precursor Protein, sandwich ELISA; settings: read-out: HEK cell assay
Summary of the method: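 HEK cells stably expressing APP were treated 24 h with compound in 10-point dose response starting at 100 or 10 μM (0.1% DMSO). Secreted Aβ40 quantified by sandwich ELISA (pAb40 capture, biotinylated 6E10 detection, europium time-resolved fluorescence), with IC50 derived from percent inhibition versus concentration.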

[3] = in vitro BACE FRET enzyme assay, IC50 class symbols
[4] = HEK cell-based assay, Aβ40 in conditioned medium, IC50 class symbols

T1 sequence (P56817 46-501, species assumed): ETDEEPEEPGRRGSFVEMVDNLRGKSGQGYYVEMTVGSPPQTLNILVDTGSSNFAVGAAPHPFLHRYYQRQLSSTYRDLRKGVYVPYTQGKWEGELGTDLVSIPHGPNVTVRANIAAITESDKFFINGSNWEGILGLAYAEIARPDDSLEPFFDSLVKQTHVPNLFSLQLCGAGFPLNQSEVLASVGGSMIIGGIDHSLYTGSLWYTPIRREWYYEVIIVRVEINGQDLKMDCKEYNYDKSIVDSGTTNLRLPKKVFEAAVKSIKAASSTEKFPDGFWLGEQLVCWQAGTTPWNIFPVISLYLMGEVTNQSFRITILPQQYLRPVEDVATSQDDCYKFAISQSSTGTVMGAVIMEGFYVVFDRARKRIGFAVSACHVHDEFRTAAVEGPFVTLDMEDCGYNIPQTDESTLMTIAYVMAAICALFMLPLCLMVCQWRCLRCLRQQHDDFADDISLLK

- IC50 (BACE1 [1]; [3]): < 0.1 µM
- IC50 (BACE1 [2]; [4]): 0.1 to 1 µM
SMILES: COCC(=O)Nc1ccc2c(c1)[C@@]1(COC(N)=N1)c1cc(C#CC(C)(C)C)ccc1O2 [compound 324]

- IC50 (BACE1 [1]): 0.1 to 1 µM
- IC50 (BACE1 [2]): 1 to 5 µM
SMILES: CC(C)(C)C#Cc1ccc2c(c1)[C@]1(COC(N)=N1)c1nc(-c3cccnc3)ccc1O2 [compound 697]

- IC50 (BACE1 [1]): 0.1 to 1 µM
- IC50 (BACE1 [2]): 1 to 5 µM
SMILES: N#CCOc1ccc2c(c1)[C@]1(COC(N)=N1)c1cc(-c3cccnc3)ccc1O2 [compound 981]

- IC50 (BACE1 [1]; Table IV, class symbols): < 0.1 µM
- IC50 (BACE1 [2]; Table IV, class symbols): < 0.1 µM
SMILES: NC1=N[C@@]2(CO1)c1cc(-c3cccnc3)ccc1Oc1ccc(N3C[C@@H]4C[C@H]3CO4)cc12 [compound 564]

- IC50 (BACE1 [1]): < 0.1 µM
- IC50 (BACE1 [2]): 0.1 to 1 µM
SMILES: CC1(C)CC1c1cc2c(cn1)Oc1ccc(-c3cccnc3)cc1[C@]21COC(N)=N1 (stereo partly drawn) [compound 677]

- IC50 (BACE1 [1]; Table III, IC50's in uM ranges): < 0.1 µM
- IC50 (BACE1 [2]; Table III, IC50's in uM ranges): < 0.1 µM
SMILES: NC1=N[C@]2(CO1)c1cc(OCC3CCOCC3)ccc1Oc1ccc(-c3cncnc3)cc12 [compound 175]

- IC50 (BACE1 [1]; Table III, IC50's in uM ranges): < 0.1 µM
- IC50 (BACE1 [2]; Table III, IC50's in uM ranges): 0.1 to 1 µM
SMILES: CC(C)(C)COc1ccc2c(c1)[C@]1(COC(N)=N1)c1cc(-c3ccnnc3)ccc1O2 [compound 145]

- IC50 (BACE1 [1]): 1 to 5 µM
- IC50 (BACE1 [2]): 1 to 5 µM
SMILES: NC1=N[C@]2(CO1)c1cc(-c3ccc(F)nc3)ccc1Oc1ncc(C3=CCOCC3)cc12 [compound 716]

- IC50 (BACE1 [1]; Table III, IC50's in uM ranges): < 0.1 µM
- IC50 (BACE1 [2]; Table III, IC50's in uM ranges): 0.1 to 1 µM
SMILES: CC1(COc2ccc3c(c2)[C@]2(COC(N)=N2)c2cc(-c4cncnc4)cnc2O3)COC1 [compound 166]

- IC50 (BACE1 [1]; Table III, IC50's in uM ranges): 1 to 5 µM
- IC50 (BACE1 [2]; Table III, IC50's in uM ranges): > 5 µM
SMILES: COC(=O)/C=C/c1ccc2c(c1)[C@@]1(COC(N)=N1)c1cc(Br)ccc1O2 [compound 169]

- IC50 (BACE1 [1]): < 0.1 µM
- IC50 (BACE1 [2]; HEK cells): < 0.1 µM
SMILES: CC1(C#Cc2cnc3c(c2)[C@]2(COC(N)=N2)c2cc(-c4cc(Cl)ccc4F)ccc2O3)COC1 [compound 521, (5S)-7-(5-chloro-2-fluorophenyl)-3-((3-methyl-3-oxetanyl)ethynyl)spiro[chromeno[2,3-b]pyridine-5,4′-[1,3]oxazol]-2′-amine]

- IC50 (BACE1 [1]; Table IV, class symbols): 0.1 to 1 µM
- IC50 (BACE1 [2]; Table IV, class symbols): 1 to 5 µM
SMILES: Cn1cc(-c2ccc3c(c2)[C@]2(COC(N)=N2)c2cc(Br)ccc2O3)cn1 [compound 638]

- IC50 (BACE1 [1]): < 0.1 µM
- IC50 (BACE1 [2]; HEK cells): < 0.1 µM
SMILES: CC1(C)C=C(c2cnc3c(c2)[C@]2(COC(N)=N2)c2cc(-c4cncnc4)ccc2O3)CCO1 [compound 478]

- IC50 (BACE1 [1]): < 0.1 µM
- IC50 (BACE1 [2]): 0.1 to 1 µM
SMILES: CC(C)(C)COc1ccc2c(c1C#N)[C@]1(COC(N)=N1)c1cc(-c3cccnc3)ccc1O2 [compound 943]

- IC50 (BACE1 [1]): 1 to 5 µM
- IC50 (BACE1 [2]; HEK cells): 1 to 5 µM
SMILES: CC(C)(C)OC(=O)n1cccc1-c1ccc2c(c1)[C@@]1(COC(N)=N1)c1cccc(F)c1O2 [compound 510]

- IC50 (BACE1 [1]; Table IV, class symbols): < 0.1 µM
- IC50 (BACE1 [2]; Table IV, class symbols): 0.1 to 1 µM
SMILES: CC(C)(C)COc1ccc2c(c1)[C@]1(COC(N)=N1)c1cc(-c3cccnn3)ccc1O2 [compound 649]

- IC50 (BACE1 [1]; Table IV, class symbols): < 0.1 µM
- IC50 (BACE1 [2]; Table IV, class symbols): 0.1 to 1 µM
SMILES: CC(C)(C)C#Cc1cnc2c(c1)[C@]1(COC(N)=N1)c1cc(-c3cncnc3)cc(F)c1O2 [compound 537]

- IC50 (BACE1 [1]): 1 to 5 µM
- IC50 (BACE1 [2]): > 5 µM
SMILES: NC1=N[C@]2(CO1)c1cc(-c3cccnc3)ccc1Oc1cnc(Cl)cc12 [compound 955]

- IC50 (BACE1 [1]; Table III, IC50's in uM ranges): < 0.1 µM
- IC50 (BACE1 [2]; Table III, IC50's in uM ranges): < 0.1 µM
SMILES: CC(C)(O)COc1ccc2c(c1)[C@]1(COC(N)=N1)c1cc(-c3ccc(F)nc3)ccc1O2 [compound 222]

- IC50 (BACE1 [1]): 0.1 to 1 µM
- IC50 (BACE1 [2]): 1 to 5 µM
SMILES: CC(=O)c1cccc(-c2ccc3c(c2)[C@@]2(COC(N)=N2)c2cc(OCC(C)(C)C)ccc2O3)c1 [compound 973]

- IC50 (BACE1 [1]): < 0.1 µM
- IC50 (BACE1 [2]; HEK cells): < 0.1 µM
SMILES: CC1(C)CN(c2cnc3c(c2)[C@]2(COC(N)=N2)c2cc(-c4cc(F)ccc4F)ccc2O3)CCO1 [compound 468]

- IC50 (BACE1 [1]): < 0.1 µM
- IC50 (BACE1 [2]; HEK cells): < 0.1 µM
SMILES: CC(C)(C)CCc1cnc2c(c1)[C@]1(COC(N)=N1)c1cc(-c3cncnc3)ccc1O2 [compound 472]

- IC50 (BACE1 [1]; [3]): < 0.1 µM
- IC50 (BACE1 [2]; [4]): < 0.1 µM
SMILES: CC1(COc2cnc3c(c2)[C@]2(COC(N)=N2)c2cc(-c4c(F)cccc4F)ccc2O3)COC1 [compound 411]

SMILES: CC(C)N1CC=C(c2ccc3c(c2)[C@]2(COC(N)=N2)c2cc(-c4cncnc4)ccc2O3)CC1 [compound 714]
- IC50 (BACE1 [1]): 0.1 to 1 µM
- IC50 (BACE1 [2]): < 0.1 µM

- IC50 (BACE1 [1]; Table 1): 1 to 5 µM
- IC50 (BACE1 [2]; Table 1, Aβ40, 24 h incubation): > 5 µM
SMILES: COc1ccc2c(c1)C1(COC(N)=N1)c1cc(-c3cccc(Cl)c3F)ccc1O2 (stereo not drawn) [Example 18, 2′-(3-chloro-2-fluorophenyl)-7′-methoxyspiro[1,3-oxazole-4,9′-xanthen]-2-amine]

- IC50 (BACE1 [1]): < 0.1 µM
- IC50 (BACE1 [2]; HEK cells): 0.1 to 1 µM
SMILES: CCC1(CC)CN(c2ccc3c(c2)[C@]2(COC(N)=N2)c2cc(-c4cncnc4)ccc2O3)CCO1 [compound 467]

- IC50 (BACE1 [1]): 0.1 to 1 µM
- IC50 (BACE1 [2]): 1 to 5 µM
SMILES: NC1=N[C@]2(CO1)c1cc(C3=CCOCC3)ccc1Oc1ccc(C3CC3)cc12 [compound 756]
